According to the ASAP Discovery antiviral challenge data (2025):

Key:
[1] = biological target: SARS-CoV-2 Mpro (UniProt P0DTD1)
[2] = biological target: MERS-CoV Mpro (UniProt K9N7C7)

O=C(NCc1cccs1)[C@@H]1CN(C(=O)c2cccnc2)CCN1c1ccc(Cl)c(Cl)c1
IC50 [1]: 0.123 µM | IC50 [2]: 57.5 µM
